Results as given in patent US20090197934A1, “IMIDAZOLINYLMETHYL ARYL SULFONAMIDE” (priority 2008, published 2009).

Legend:
alpha-1A adrenoceptors = biological target: T1, alpha-1A adrenoceptors (Homo sapiens, UniProt P35348); test: alpha-1A adrenoceptor partial agonist activity (intrinsic activity and pEC50); format: cell-based
T1 sequence (P35348 1-466): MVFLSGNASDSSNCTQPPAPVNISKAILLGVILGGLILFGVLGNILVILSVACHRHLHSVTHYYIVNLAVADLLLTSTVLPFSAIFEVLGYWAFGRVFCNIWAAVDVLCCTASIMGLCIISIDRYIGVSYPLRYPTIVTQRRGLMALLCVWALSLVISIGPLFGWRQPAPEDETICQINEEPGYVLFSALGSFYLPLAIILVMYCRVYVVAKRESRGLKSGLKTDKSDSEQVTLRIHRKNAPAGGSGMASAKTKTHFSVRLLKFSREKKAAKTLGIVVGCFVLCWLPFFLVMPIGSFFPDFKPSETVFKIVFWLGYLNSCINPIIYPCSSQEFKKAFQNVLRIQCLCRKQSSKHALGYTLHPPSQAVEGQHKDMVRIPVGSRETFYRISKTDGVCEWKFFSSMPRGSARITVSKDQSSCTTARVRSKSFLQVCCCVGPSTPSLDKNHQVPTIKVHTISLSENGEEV

[1] = system: Female Yucatan Micro-Swine; test: Conscious Pig Model (IUP, MAP and HR during iv infusion); format: in vivo
Description: In general, IUP is the intraurethral pressure and is measured as the 2 minute mean from the first peak of the urethral response (FIG. 1). MAP is the mean arterial blood pressure and is measured as the average blood pressure during the 2 minute section where IUP is measured. The durability is the slope of the IUP response in mmHg/min and is calculated immediately after the 2 minute IUP response for 5 minutes (2-7 minutes post the first peak) for the top 3 doses.
Sling Training: Female Yucatan Micro-Swine were trained to stay in a sling for up to 4 hours. Swine were exposed to progressively longer sling durations per IACUC sling-training guideline.
Surgical Instrumentation: Female Yucatan Micro-swine were instrumented with a telemetry device with both pressure and ECG monitoring capabilities (Data Sciences International St Paul Minn.). In addition, a Bardport low profile titanium VAP was placed subcutanteously for blood sampling. All devices were implanted by the surgical veterinarian at Roche Palo Alto. Briefly, the telemetry probe body was placed subcutaneously in the cervical region. The intra-arterial pressure catheter was advanced via the superficial cervical artery into the subclavian artery for blood pressure measurement. The ECG leads were placed intra-muscularly: one in the intercostal muscle between the T8-T10 regions on the left side, and the other in the intercostal muscles between the T1-T3 regions on the right side. The VAP was placed subcutaneously in the neck region, with the catheter advanced into the jugular vein. Swine were allowed to fully recover from the surgery (typically 10 days). […]
Experiment: After the swine was fully awake and stable (usually approximately 1 hour post wake up), baseline blood pressure, IUP, and heart rate parameters were determined. […]
Data Generating and Analysis Systems: Cardiovascular readings were generated by the TL11M3-D70-PCP (Data Sciences International, St. Paul, Minn.) telemetry device and associated hardware. […] IUP was monitored by a solid state catheter connected to a TA6000 Polygraph (Data Sciences International, St. Paul, Minn.). […]

intrinsic activity, or efficacy, as a partial agonist (alpha-1A adrenoceptors; ideally between 0.35 to 0.60): 0.45 | EC50 (alpha-1A adrenoceptors; read-out: affinity, or pEC50 value (converted)): 316 nM
Compound: CS(=O)(=O)Nc1cc(F)c(CC2=NCCN2)c(Br)c1Cl [Formula I, N-[3-Bromo-2-chloro-4-(4,5-dihydro-1H-imidazol-2-ylmethyl)-5-fluoro-phenyl]-methanesulfonamide]
maximum arterial blood pressure effect [1]: low | selectivity for enhancement of intraurethral pressure (IUP) over blood pressure (MAP) [1]: selectivity for enhancement of intraurethral pressure (IUP) over blood pressure (MAP) | durability of IUP response over time ([1]; compared to analogue compound lacking the 3-bromo and 5-fluoro substituents (FIG. 1b vs FIG. 1c)): unexpectedly increased durability of IUP response over time
